Source: ChEMBL document CHEMBL5303304, “EUbOPEN Chemogenomics Library - IncuCyte” (2023)

Experiments:
Assay type in all cases: toxicity, cell-based
[1] = test system: U2OS; assay: Incucyte cell viability with U2OS; conditions: human, 10 µM, compound concentration 10 uM
[2] = test system: Fibroblast; assay: Incucyte cell viability with human fibroblast; conditions: 10 µM, compound concentration 10 uM
[3] = test system: HEK-293T; assay: Incucyte cell viability with HEK293T; conditions: human, 10 µM, compound concentration 10 uM
Also: unitless GR value; below 1 slowed growth and below 0 cell loss.

SMILES	Growth Rate ([1]; 6 h, replicate number 1)	Growth Rate ([1]; 12 h, replicate number 1)	Growth Rate ([1]; 18 h, replicate number 1)	Growth Rate ([1]; 24 h, replicate number 1)	Growth Rate ([2]; 6 h, replicate number 1)	Growth Rate ([2]; 12 h, replicate number 2)	Growth Rate ([2]; 18 h, replicate number 1)	Growth Rate ([2]; 18 h, replicate number 2)	Growth Rate ([2]; 24 h, replicate number 1)	Growth Rate ([2]; 24 h, replicate number 2)	Growth Rate ([3]; 0 h, replicate number 1)	Growth Rate ([3]; 6 h, replicate number 2)	Growth Rate ([3]; 12 h, replicate number 2)	Growth Rate ([3]; 18 h, replicate number 2)	Growth Rate ([3]; 24 h, replicate number 1)	Growth Rate ([3]; 24 h, replicate number 2)	Growth Rate ([1]; 6 h, replicate number 2)	Growth Rate ([2]; 0 h, replicate number 2)	Growth Rate ([2]; 12 h, replicate number 1)	Growth Rate ([3]; 0 h, replicate number 2)	also measured
Cc1n[nH]c2ncc(C(=O)N3CCC[C@H]3c3ccc(Cl)cc3)cc12	0.34	0.67	0.94	0.91	0.75	0.76	0.66	0.99	0.73	0.92	0.29	0.58	0.96	1	1	0.89					
Cc1cc(OC2CCS(=O)(=O)CC2)cc(C)c1-c1cccc(COc2ccc(CCC(=O)O)c(F)c2)c1		0.88	0.96	0.92		0.88	0.84								0.94	0.96	0.78	0	0.64	0.14	Growth Rate ([1]; 12 h, replicate number 2): 0.91; Growth Rate ([1]; 18 h, replicate number 2): 0.99; Growth Rate ([1]; 24 h, replicate number 2): 0.87; Growth Rate ([2]; 0 h, replicate number 1): -0.63; Growth Rate ([3]; 6 h, replicate number 1): 0.99; Growth Rate ([3]; 18 h, replicate number 1): 0.99
Cn1cc(-c2ccc(N(C(=O)NCc3ccccc3)[C@H]3CC[C@H](Nc4ccc(C#N)cn4)CC3)cc2)ccc1=O	0.45	0.28	0.12	-0.14	0.65	-0.01	0.17	-0.04	0.16	-0.08	-0.73	-0.56	-0.56	-0.48	-0.14	-0.39	0.58	-0.77	0.45	0.96	Growth Rate ([1]; 18 h, replicate number 2): 0.06; Growth Rate ([1]; 24 h, replicate number 2): -0.05; Growth Rate ([2]; 0 h, replicate number 1): 0.84; Growth Rate ([2]; 6 h, replicate number 2): 0.48; Growth Rate ([3]; 6 h, replicate number 1): -0.2; Growth Rate ([3]; 12 h, replicate number 1): -0.28; Growth Rate ([3]; 18 h, replicate number 1): -0.21
Oc1ccc(-c2nc(-c3ccncc3)c(-c3ccc(F)cc3)[nH]2)cc1 [SB-202190]					0.11	0.62					0							-0.18	-0.11	-0.17	Growth Rate ([1]; 0 h, replicate number 1): -0.88; Growth Rate ([1]; 0 h, replicate number 2): -0.95
